Measured values taken from patent US20060089371A1, “Phenyl or heteroaryl amino alkane derivatives as ip receptor antagonist” (Bayer HealthCare AG, priority 2002, published 2006).
Counter-ions that a name gives are not always drawn.

Columns and labels:
IP receptor = molecular target: T1, IP receptor (Homo sapiens, UniProt P43119); assay: IP receptor binding/cAMP in HEL cells ([3H]-iloprost binding, Assay 1; iloprost-induced cAMP production, Assay 2); settings: compounds of about 40 to 90% purity, read-out: In vitro activity grade (IC50 class)
T1 construct: one million cells in 160 μl aliquot of cell suspension were put in a well of 96 well plate; host or cells: HEL 92.1.7 human erythroleukemia cells (whole cells)
Description: [Measurement of the [^3H]-iloprost Binding to HEL Cells] (Assay 1)
A human erythloleukemia cell line, HEL 92.1.7, was purchased from American Type Culture Correction and maintained in RPMI-1640 medium (Gibco BRL) supplemented with 10% fetal calf serum (FCS), 2 mM glutamine, 4.5 g/L glucose, 10 mM Hepes, 1 mM sodium pyruvate, 100 U/ml penicillin, and 100 μg/ml streptomycin in a humidified 5% CO2 atmosphere at 37° C. Cells were collected with centrifugation and washed with binding assay buffer (BAB: 50 mM Tris-HCl, 5 mM MgCl2 (pH 7.5)). Cells were suspended at the density of 6.25×10^6 cells/ml in BAB, and one million cells in 160 μl aliquot of cell suspension were put in a well of 96 well plate (Falcon). Then, 20 μl of compound solution, 100 μM of iloprost (for non-specific binding), or buffer alone (total binding), diluted with 1% DMSO in BAB was added. Finally, another 20 μl containing [^3H]-iloprost (0.02 μCi, 0.5-1 pmol) in BAB was added and incubated at room temperature for 30 min with a gentle shaking. Cell suspension was then transferred to a well of MultiScreen plate with GF/C glass filters (Millipore) to harvest cells. Cells were washed twice with 200 μl of ice-cold BAB and the plate was kept at 55° C. for 30 min to dry filters. The filter in the well was punched out to a counting tube and 2 ml of Ultima Gold XR (Packard) was added. [^3H]-radio activity in the filter was measured by a liquid scintillation counter (Beckman, USA).
[Iloprost-Induced cAMP Production Assay in HEL Cells] (Assay 2)
HEL cells were collected with centrifugation and washed with cAMP assay buffer (CAB: Hank's balanced salt solution, 17 mM Hepes, 0.1% bovine serum albumin, 1 mM IBMX, 0.4% DMSO, and 1 mM L-ascorbic acid sodium salt (pH 7.4)). Cells were suspended at the density of 2.5×10^5 cells/ml in CAB, and twenty thousand cells in 80 μl aliquot of cell suspension were put in a well of 96 well plate (Falcon). Then, 10 μl of compound solution diluted with 1% DMSO in CAB or buffer alone was added. The plate was incubated at 37° C. for 30 min. Then, another 10 μl containing 100 nM iloprost in CAB or buffer alone was added and further incubated at 37° C. for 30 min. cAMP content in the well was measured by a cAMP ELISA kit (Applied Biosystems, USA).
The data corresponds to the compounds as yielded by solid phase synthesis and thus to levels of purity of about 40 to 90%. For practical reasons, the compounds are grouped in three classes of activity as follows: IC50=A<0.1 μM≦B<1 μM≦C

T1 sequence (P43119 whole entry): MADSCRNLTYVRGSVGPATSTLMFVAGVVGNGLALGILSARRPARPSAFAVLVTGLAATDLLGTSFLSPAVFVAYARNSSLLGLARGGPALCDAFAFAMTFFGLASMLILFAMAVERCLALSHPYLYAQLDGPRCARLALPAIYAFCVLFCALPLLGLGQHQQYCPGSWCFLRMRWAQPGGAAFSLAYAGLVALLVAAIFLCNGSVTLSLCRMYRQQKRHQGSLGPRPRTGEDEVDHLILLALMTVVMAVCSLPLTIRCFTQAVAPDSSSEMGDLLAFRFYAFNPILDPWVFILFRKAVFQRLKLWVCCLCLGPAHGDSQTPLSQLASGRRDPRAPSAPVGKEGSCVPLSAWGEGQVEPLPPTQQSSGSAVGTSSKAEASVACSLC

IC50 (IP receptor) [µM]	melting point	Compound
< 0.1		N#Cc1ccnc(Oc2ccc(-c3cc(N[C@@H](Cc4ccccc4)C(=O)O)ncn3)cc2)c1 [Example 12-1, N-(6-{4-[(4-cyanopyridin-2-yl)oxy]phenyl}pyrimidin-4-yl)phenylalanine]
< 0.1		O=C(O)[C@H](Cc1ccccc1)Nc1nccc(-c2ccc(OCc3ccccc3)cc2)n1 [Example 29-1, N-{4-[4-(Benzyloxy)phenyl]pyrimidin-2-yl}phenylalanine]
> 1		O=C(O)C(Cc1ccccc1)Nc1cc(-c2ccc(-c3ccc(-c4ccccc4)cc3)cc2)ncn1 (stereo not drawn) [Example 11-8]
< 0.1		O=C(O)C(Cc1ccccc1)Nc1cc(-c2ccc(NCc3ccccc3)cc2)ncn1 (stereo not drawn) [Example 13-1, N-{6-[4-Benzylamino)phenyl]pyrimidin-4-yl}phenylalanine hydrochloride]
< 0.1		O=C(O)C(Cc1ccccc1)Nc1cc(-c2ccc(CCc3ccccc3)cc2)ncn1 (stereo not drawn) [Example 8-1, N-{6-[4-(2-Phenylethyl)phenyl]pyrimidinyl}phenylalanine]
0.1 to 1		O=C(O)[C@H](Cc1ccccc1)Nc1cc(-c2ccc(NCC3CC3)cc2)ncn1 [Example 16-1, N-(6-{4-[(Cyclopropylmethyl)amino]phenyl}pyrimidin-4-yl)phenylalanine]
0.1 to 1		c1ccc(COc2ccc(-c3cc(NC(Cc4ccccn4)c4nnn[nH]4)ncn3)cc2)cc1 (stereo not drawn) [Example 27-2]
< 0.1		O=C(O)[C@H](Cc1ccc(NC2=NCCN2)cc1)Nc1cc(-c2ccc(OCc3ccccc3)cc2)ncn1 [Example 6-1, N-{6-[4-(Benzyloxy)phenyl]pyrimidin-4-yl}-4-(4,5-dihydro-1H-imidazol-2-yl-amino)phenylalanine]
< 0.1		O=C(O)[C@H](Cc1ccccc1)Nc1cc(-c2ccc(COc3ccccc3)cc2)ncn1 [Example 20-1, N-{6-[4-(Phenoxymethyl)phenyl]pyrimidin-4-yl}phenylalanine]
< 0.1		O=C(O)C(Cc1ccccc1)Nc1cc(-c2ccc(CNc3ccccc3)cc2)ncn1 (stereo not drawn) [Example 19-1, N-{6-[4-(Anilinomethyl)phenyl]pyrimidinyl}phenylalanine]
	116 to 118 °C	O=C(O)[C@H](Cc1ccccc1)Nc1cc(-c2ccc(Cc3ccccc3)cc2)ncn1 [Example 18-1, N-[6-(4-Benzylphenyl)pyrimidin-4-yl]phenylalanine]
< 0.1		O=C(O)C(Cc1ccccc1)Nc1cc(-c2ccc(OCc3ccccc3)cc2)on1 (stereo not drawn) [Example 28-2]
< 0.1		O=C(O)C(Cc1cccc(OCCN2CCOCC2)c1)Nc1cc(-c2ccc(OCc3ccccc3)cc2)ncn1 (stereo not drawn) [Example 4-2]
> 1		Cn1nc(-c2ccc(OCc3ccccc3)cc2)cc1NC(Cc1ccccc1)C(=O)O (stereo not drawn) [Example 28-3]
> 1		O=C(O)C(Cc1ccccc1)Nc1nc(-c2ccc(OCc3ccccc3)cc2)cs1 (stereo not drawn) [Example 28-4]
0.1 to 1		O=C(O)C(Cc1ccccc1)Nc1cc(-c2ccc(CN3Cc4ccccc4C3)cc2)ncn1 (stereo not drawn) [Example 19-3]
> 1		O=C(O)[C@H](Cc1ccccc1)Nc1cc(-c2ccc(NS(=O)(=O)c3ccccc3)cc2)ncn1 [Example 15-1, N-(6-{4-[(Phenylsulfonyl)amino]phenyl}pyrimidin-4-yl)phenylalanine]
> 1		O=C(O)C(Cc1ccccc1)Nc1cc(-c2ccc(Oc3ncc(C(F)(F)F)cc3Cl)cc2)ncn1 (stereo not drawn) [Example 12-2]
< 0.1		COc1ccc(-c2ccc(-c3cc(N[C@@H](Cc4ccccc4)C(=O)O)ncn3)cc2)cc1 [Example 11-1, N-[6-(4′-Methoxybiphenyl-4-yl)pyrimidin-4-yl]phenylalanine]
0.1 to 1		O=C(O)C(Cc1ccccc1)Nc1cc(-c2ccc(Oc3ccc(C(F)(F)F)cn3)cc2)ncn1 (stereo not drawn) [Example 12-5]
0.1 to 1		O=C(O)C(Cc1ccccc1)Nc1cc(-c2ccc(Oc3cc(C(F)(F)F)ncn3)cc2)ncn1 (stereo not drawn) [Example 12-3]
0.1 to 1		O=C(O)C(Cc1ccccc1)Nc1cc(-c2ccc(Oc3ccc4ccccc4n3)cc2)ncn1 (stereo not drawn) [Example 12-6]
> 1		Cc1ccc(C#N)c(Oc2ccc(-c3cc(NC(Cc4ccccc4)C(=O)O)ncn3)cc2)n1 (stereo not drawn) [Example 12-4]

More lines, now with the values behind:

Compound	IC50 (IP receptor) [µM]	melting point
O=C(O)C(CCc1ccccc1)Nc1cc(-c2ccc(OCc3ccccc3)cc2)ncn1 (stereo not drawn) [Example 1-14]	< 0.1	226 to 228 °C
CC(C)Oc1ccc(-c2cc(NC(Cc3ccccc3)C(=O)O)ncn2)cc1 (stereo not drawn) [Example 2-12]	< 0.1	201 to 204 °C (dec.)
O=C(O)[C@H](Cc1ccccc1)Nc1cc(-c2ccc(OCc3ccccc3)cc2)ncn1 [Example 1-50]	0.1 to 1	150 to 155 °C
O=C(O)C(Cc1ccccc1)Nc1cc(-c2ccc(OCCc3ccccn3)cc2)ncn1 (stereo not drawn) [Example 2-26]	< 0.1	120 to 122 °C (dec.)
CC(C)C(Nc1cc(-c2ccc(OCc3ccccc3)cc2)ncn1)C(=O)O (stereo not drawn) [Example 1-16]	0.1 to 1	235 to 237 °C
O=C(O)C(Cc1ccccc1)Nc1cc(-c2ccc(OCc3ccccc3)cc2)nc(Cl)n1 (stereo not drawn) [Example 1-21]	< 0.1	
Nc1nc(NC(Cc2ccccc2)C(=O)O)cc(-c2ccc(OCc3ccccc3)cc2)n1 (stereo not drawn) [Example 1-38]	< 0.1	
CSc1nc(NC(Cc2ccccc2)C(=O)O)cc(-c2ccc(OCc3ccccc3)cc2)n1 (stereo not drawn) [Example 1-54]	0.1 to 1	
O=C(O)C(Cc1ccccc1)Nc1cc(-c2ccccc2)ncn1 (stereo not drawn) [Example 1-51]	0.1 to 1	
CCCCC(Nc1cc(-c2ccc(OCC3CC3)c(F)c2)ncn1)C(=O)O (stereo not drawn) [Example 2-42]	0.1 to 1	
O=C(O)[C@H](Cc1ccccc1)Nc1ccnc(-c2ccc(OCc3ccccc3)cc2)n1 [Example 3-1, N-{2-[4-(Benzyloxy)phenyl]-4-pyrimidinyl}phenylalanine]	0.1 to 1	
O=C(O)C(Cc1ccccc1)Nc1cc(-c2ccc(F)cc2)ncn1 (stereo not drawn) [Example 1-52]	0.1 to 1	
O=C(O)[C@@H](Cc1ccccc1)Nc1cc(-c2ccc(OCc3ccccc3)cc2)ncn1 [Example 1-1, N-{6-[4-(Benzyloxy)phenyl]pyrimidin-4-yl}-D-phenylalanine]	< 0.1	
O=C(O)C(Cc1ccccc1)Nc1cc(-c2ccc(Cl)cc2)ncn1 (stereo not drawn) [Example 1-55]	0.1 to 1	
CCOc1ccc(-c2cc(NC(Cc3ccccc3)C(=O)O)ncn2)cc1 (stereo not drawn) [Example 2-18]	< 0.1	
O=C(O)C(Cc1c[nH]c2ccccc12)Nc1cc(-c2ccc(OCc3ccccc3)cc2)ncn1 (stereo not drawn) [Example 1-37]	< 0.1	
O=C(O)C(Cc1ccccn1)Nc1cc(-c2ccc(OCC3CC3)c(F)c2)ncn1 (stereo not drawn) [Example 2-43]	0.1 to 1	
O=C(O)C(Cc1ccccn1)Nc1cc(-c2ccc(-c3ccccc3)cc2)ncn1 (stereo not drawn) [Example 1-53]	< 0.1	
COc1cccc(COc2ccc(-c3cc(NC(Cc4ccccn4)C(=O)O)ncn3)cc2)c1 (stereo not drawn) [Example 2-36]	< 0.1	
COc1cc(COc2ccc(-c3cc(NC(Cc4ccccn4)C(=O)O)ncn3)cc2)cc(OC)c1 (stereo not drawn) [Example 2-37]	< 0.1	
O=C(O)C(Cc1ccccc1)Nc1cc(-c2ccc(OCC3CC3)c(F)c2)ncn1 (stereo not drawn) [Example 2-41]	< 0.1	
CCCC[C@@H](Nc1cc(-c2ccc(OCc3ccccc3)cc2)ncn1)C(=O)O [Example 1-3, N-{6-[4-(benzyloxy)phenyl]pyrimidin-4-yl}-D-norleucine hydrochloride]	< 0.1	
CCCOc1ccc(-c2cc(NC(Cc3ccccc3)C(=O)O)ncn2)cc1 (stereo not drawn) [Example 2-19]	< 0.1	
